Source: patent US20020111274A1, “1-alkyl-3-[1-(substituted phenyl) benzotriazol-6-yl] uracils” (BASF Aktiengesellschaft, priority 2000, published 2002)

Assays:
Set-up in all cases: scale not given here
ABUTH Velvetleaf [1] = experiment: Postemergence herbicidal evaluation, ABUTH; format: in vivo, Abutilon theophrasti, Medic.
Outline: (§1)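 For this test, compound in an 80/20 acetone/water vehicle with 1.0% seed oil was sprayed over two-week-old seedlings at about 0.006 to 0.400 kg per hectare. Injury was assessed visually two to three weeks on.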

AMBEL Ragweed, Common [2] = experiment: Postemergence herbicidal evaluation, AMBEL; format: in vivo, Ambrosia artemisifolia, L.
Outline: as §1

CASOB Sicklepod [3] = experiment: Postemergence herbicidal evaluation, CASOB; format: in vivo, Cassia obtusifolia, L.
Outline: as §1

[4] = tested on: CHEAL Lambsquarters, Common; experiment: Postemergence herbicidal evaluation, CHEAL; format: in vivo, Chenopodium album, L.
Outline: as §1

ECHOG Barnyardgrass [5] = experiment: Postemergence herbicidal evaluation, ECHOG; format: in vivo, Echinochloa crus-galli, (L.) Beau
Outline: as §1

GALAP Galium [6] = experiment: Postemergence herbicidal evaluation, GALAP; format: in vivo, Galium aparine
Outline: as §1

[7] = tested on: IPOHE Morningglory, Ivyleaf; experiment: Postemergence herbicidal evaluation, IPOHE; format: in vivo, Ipomoea hederacea, (L.) Jacq.
Outline: as §1

SETVI Foxtail, Green [8] = experiment: Postemergence herbicidal evaluation, SETVI; format: in vivo, Setaria viridis, (L.) Beau
Outline: as §1

GLXMAW Soybean, Williams [9] = experiment: Postemergence herbicidal evaluation, GLXMAW; format: in vivo, Glycine max, (L.) Merr. cv Williams
Outline: as §1

[10] = tested on: TRZAWR Wheat, Winter, cv Riband; experiment: Postemergence herbicidal evaluation, TRZAWR; format: in vivo, Triticum aestivum
Outline: as §1

ORYSAT Rice, Tebonnet [11] = experiment: Postemergence herbicidal evaluation, ORYSAT; format: in vivo, Oryza sativa, (L.)
Outline: as §1

ZEAMX Corn, Field [12] = experiment: Postemergence herbicidal evaluation, ZEAMX; format: in vivo, Zea mays, L. (Sammel-Bezeichnung)
Outline: as §1

ABUTH Velvetleaf [13] = experiment: Preemergence herbicidal evaluation, ABUTH; format: in vivo, Abutilon theophrasti, Medic.; details: for ABUTH herbicidal rating: preemergence
Outline: (§2)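 Visual ratings were taken four to five weeks after application. Before that, cups sown with seed in potting soil received a spray of compound dissolved in aqueous acetone, equivalent to about 0.013 to 0.800 kg/ha, and stood on greenhouse benches under conventional care.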

AMBEL Ragweed, Common [14] = experiment: Preemergence herbicidal evaluation, AMBEL; format: in vivo, Ambrosia artemisifolia, L.; details: for AMBEL herbicidal rating: preemergence; for Preemergence herbicidal rating, AMBEL: rated four to five weeks after treatment
Outline: as §2

CASOB Sicklepod [15] = experiment: Preemergence herbicidal evaluation, CASOB; format: in vivo, Cassia obtusifolia, L.; details: for CASOB herbicidal rating: preemergence; for Preemergence herbicidal rating, CASOB: rated four to five weeks after treatment
Outline: as §2

[16] = tested on: CHEAL Lambsquarters, Common; experiment: Preemergence herbicidal evaluation, CHEAL; format: in vivo, Chenopodium album, L.; details: for CHEAL herbicidal rating: preemergence; for Preemergence herbicidal rating, CHEAL: rated four to five weeks after treatment
Outline: as §2

ECHOG Barnyardgrass [17] = experiment: Preemergence herbicidal evaluation, ECHOG; format: in vivo, Echinochloa crus-galli, (L.) Beau; details: for ECHCG herbicidal rating: preemergence; for Preemergence herbicidal rating, ECHCG: rated four to five weeks after treatment
Outline: as §2

GALAP Galium [18] = experiment: Preemergence herbicidal evaluation, GALAP; format: in vivo, Galium aparine; details: for GALAP herbicidal rating: preemergence; for Preemergence herbicidal rating, GALAP: rated four to five weeks after treatment
Outline: as §2

[19] = tested on: IPOHE Morningglory, Ivyleaf; experiment: Preemergence herbicidal evaluation, IPOHE; format: in vivo, Ipomoea hederacea, (L.) Jacq.; details: for IPOHE herbicidal rating: preemergence; for Preemergence herbicidal rating, IPOHE: rated four to five weeks after treatment
Outline: as §2

SETVI Foxtail, Green [20] = experiment: Preemergence herbicidal evaluation, SETVI; format: in vivo, Setaria viridis, (L.) Beau; details: for SETVI herbicidal rating: preemergence; for Preemergence herbicidal rating, SETVI: rated four to five weeks after treatment
Outline: as §2

GLXMAW Soybean, Williams [21] = experiment: Preemergence herbicidal evaluation, GLXMAW; format: in vivo, Glycine max, (L.) Merr. cv Williams; details: for GLXMAW herbicidal rating: preemergence; for Preemergence herbicidal rating, GLXMAW: rated four to five weeks after treatment
Outline: as §2

[22] = tested on: TRZAWR Wheat, Winter, cv Riband; experiment: Preemergence herbicidal evaluation, TRZAWR; format: in vivo, Triticum aestivum; details: for TRZAWR herbicidal rating: preemergence; for Preemergence herbicidal rating, TRZAWR: rated four to five weeks after treatment
Outline: as §2

ORYSAT Rice, Tebonnet [23] = experiment: Preemergence herbicidal evaluation, ORYSAT; format: in vivo, Oryza sativa, (L.); details: for ORYSAT herbicidal rating: preemergence; for Preemergence herbicidal rating, ORYSAT: rated four to five weeks after treatment
Outline: as §2

ZEAMX Corn, Field [24] = experiment: Preemergence herbicidal evaluation, ZEAMX; format: in vivo, Zea mays, L. (Sammel-Bezeichnung); details: for ZEAMX herbicidal rating: preemergence; for Preemergence herbicidal rating, ZEAMX: rated four to five weeks after treatment
Outline: as §2

[25] = 0.016 kg/ha, postemergence spray, rated about two-three weeks after treatment
[26] = 0.032 kg/ha, postemergence spray, rated about two-three weeks after treatment
[27] = 0.062 kg/ha, postemergence spray, rated about two-three weeks after treatment
[28] = rate 0.008 kg/ha, rated two - three weeks after treatment

Cn1c(C(F)(F)F)cc(=O)n(-c2cc3c(cc2F)nnn3-c2ccc(OCC(=O)O)cc2)c1=O [Example 44]
Postemergence herbicidal rating ABUTH (ABUTH Velvetleaf [1]; [25]): 9.0 | Postemergence herbicidal rating ABUTH (ABUTH Velvetleaf [1]; [26]): 7.0 | Postemergence herbicidal rating ABUTH (ABUTH Velvetleaf [1]; [27]): 9.0 | Postemergence herbicidal rating ABUTH (ABUTH Velvetleaf [1]; [28]): 9.0 | Postemergence herbicidal rating AMBEL (AMBEL Ragweed, Common [2]; [25]): 3.0 | Postemergence herbicidal rating AMBEL (AMBEL Ragweed, Common [2]; [26]): 6.0 | Postemergence herbicidal rating AMBEL (AMBEL Ragweed, Common [2]; [27]): 7.0 | Postemergence herbicidal rating AMBEL (AMBEL Ragweed, Common [2]; [28]): 3.0 | Postemergence herbicidal rating CASOB (CASOB Sicklepod [3]; [25]): 0.0 | Postemergence herbicidal rating CASOB (CASOB Sicklepod [3]; [26]): 1.0 | Postemergence herbicidal rating CASOB (CASOB Sicklepod [3]; [27]): 2.0 | Postemergence herbicidal rating CASOB (CASOB Sicklepod [3]; [28]): 0.0 | Postemergence herbicidal rating CHEAL [4, 25]: 7.0 | Postemergence herbicidal rating CHEAL [4, 26]: 6.0 | Postemergence herbicidal rating CHEAL [4, 27]: 9.0 | Postemergence herbicidal rating CHEAL [4, 28]: 5.0 | Postemergence herbicidal rating ECHCG (ECHOG Barnyardgrass [5]; [25]): 4.0 | Postemergence herbicidal rating ECHCG (ECHOG Barnyardgrass [5]; [26]): 6.0 | Postemergence herbicidal rating ECHCG (ECHOG Barnyardgrass [5]; [27]): 6.0 | Postemergence herbicidal rating ECHCG (ECHOG Barnyardgrass [5]; [28]): 3.0 | Postemergence herbicidal rating GALAP (GALAP Galium [6]; [25]): 0.0 | Postemergence herbicidal rating GALAP (GALAP Galium [6]; [26]): 1.0 | Postemergence herbicidal rating GALAP (GALAP Galium [6]; [27]): 2.0 | Postemergence herbicidal rating GALAP (GALAP Galium [6]; [28]): 0.0 | Postemergence herbicidal rating IPOHE [7, 25]: 7.0 | Postemergence herbicidal rating IPOHE [7, 26]: 9.0 | Postemergence herbicidal rating IPOHE [7, 27]: 9.0 | Postemergence herbicidal rating IPOHE [7, 28]: 7.0 | Postemergence herbicidal rating SETVI (SETVI Foxtail, Green [8]; [25]): 4.0 | Postemergence herbicidal rating SETVI (SETVI Foxtail, Green [8]; [26]): 7.0 | Postemergence herbicidal rating SETVI (SETVI Foxtail, Green [8]; [27]): 7.0 | Postemergence herbicidal rating SETVI (SETVI Foxtail, Green [8]; [28]): 4.0 | Postemergence herbicidal rating GLXMAW (GLXMAW Soybean, Williams [9]; [25]): 6.5 | Postemergence herbicidal rating GLXMAW (GLXMAW Soybean, Williams [9]; [26]): 6.5 | Postemergence herbicidal rating GLXMAW (GLXMAW Soybean, Williams [9]; [27]): 7.0 | Postemergence herbicidal rating GLXMAW (GLXMAW Soybean, Williams [9]; [28]): 5.0 | Postemergence herbicidal rating TRZAWR [10, 25]: 4.0 | Postemergence herbicidal rating TRZAWR [10, 26]: 3.5 | Postemergence herbicidal rating TRZAWR [10, 27]: 4.0 | Postemergence herbicidal rating TRZAWR [10, 28]: 3.0 | Postemergence herbicidal rating ORYSAT (ORYSAT Rice, Tebonnet [11]; [25]): 2.5 | Postemergence herbicidal rating ORYSAT (ORYSAT Rice, Tebonnet [11]; [26]): 2.5 | Postemergence herbicidal rating ORYSAT (ORYSAT Rice, Tebonnet [11]; [27]): 3.0 | Postemergence herbicidal rating ORYSAT (ORYSAT Rice, Tebonnet [11]; [28]): 2.5 | Postemergence herbicidal rating ZEAMX (ZEAMX Corn, Field [12]; [25]): 6.5 | Postemergence herbicidal rating ZEAMX (ZEAMX Corn, Field [12]; [26]): 6.5 | Postemergence herbicidal rating ZEAMX (ZEAMX Corn, Field [12]; [27]): 7.0 | Postemergence herbicidal rating ZEAMX (ZEAMX Corn, Field [12]; [28]): 4.5 | ABUTH herbicidal rating (ABUTH Velvetleaf [13]; rate 0.062 kg/ha): 7.0 | ABUTH herbicidal rating (ABUTH Velvetleaf [13]; rate 0.125 kg/ha): 9.0 | Preemergence herbicidal rating, ABUTH (ABUTH Velvetleaf [13]; rate 0.032 kg/ha, rated four to five weeks after treatment): 0.0 | AMBEL herbicidal rating (AMBEL Ragweed, Common [14]; rate 0.062 kg/ha): 0.0 | AMBEL herbicidal rating (AMBEL Ragweed, Common [14]; rate 0.125 kg/ha): 0.0 | Preemergence herbicidal rating, AMBEL (AMBEL Ragweed, Common [14]; rate 0.016 kg/ha): 1.0 | Preemergence herbicidal rating, AMBEL (AMBEL Ragweed, Common [14]; rate 0.032 kg/ha): 0.0 | CASOB herbicidal rating (CASOB Sicklepod [15]; rate 0.062 kg/ha): 2.0 | CASOB herbicidal rating (CASOB Sicklepod [15]; rate 0.125 kg/ha): 0.0 | Preemergence herbicidal rating, CASOB (CASOB Sicklepod [15]; rate 0.016 kg/ha): 0.0 | Preemergence herbicidal rating, CASOB (CASOB Sicklepod [15]; rate 0.032 kg/ha): 1.0 | CHEAL herbicidal rating ([16]; rate 0.062 kg/ha): 9.0 | CHEAL herbicidal rating ([16]; rate 0.125 kg/ha): 9.0 | Preemergence herbicidal rating, CHEAL ([16]; rate 0.016 kg/ha): 9.0 | Preemergence herbicidal rating, CHEAL ([16]; rate 0.032 kg/ha): 9.0 | ECHCG herbicidal rating (ECHOG Barnyardgrass [17]; rate 0.062 kg/ha): 0.0 | ECHCG herbicidal rating (ECHOG Barnyardgrass [17]; rate 0.125 kg/ha): 0.0 | Preemergence herbicidal rating, ECHCG (ECHOG Barnyardgrass [17]; rate 0.016 kg/ha): 0.0 | Preemergence herbicidal rating, ECHCG (ECHOG Barnyardgrass [17]; rate 0.032 kg/ha): 0.0 | GALAP herbicidal rating (GALAP Galium [18]; rate 0.062 kg/ha): 4.0 | GALAP herbicidal rating (GALAP Galium [18]; rate 0.125 kg/ha): 7.0 | Preemergence herbicidal rating, GALAP (GALAP Galium [18]; rate 0.016 kg/ha): 3.0 | Preemergence herbicidal rating, GALAP (GALAP Galium [18]; rate 0.032 kg/ha): 5.0 | IPOHE herbicidal rating ([19]; rate 0.062 kg/ha): 0.0 | IPOHE herbicidal rating ([19]; rate 0.125 kg/ha): 2.0 | Preemergence herbicidal rating, IPOHE ([19]; rate 0.016 kg/ha): 0.0 | Preemergence herbicidal rating, IPOHE ([19]; rate 0.032 kg/ha): 0.0 | SETVI herbicidal rating (SETVI Foxtail, Green [20]; rate 0.062 kg/ha): 3.0 | SETVI herbicidal rating (SETVI Foxtail, Green [20]; rate 0.125 kg/ha): 9.0 | Preemergence herbicidal rating, SETVI (SETVI Foxtail, Green [20]; rate 0.016 kg/ha): 0.0 | Preemergence herbicidal rating, SETVI (SETVI Foxtail, Green [20]; rate 0.032 kg/ha): 0.0 | GLXMAW herbicidal rating (GLXMAW Soybean, Williams [21]; rate 0.062 kg/ha): 0.0 | GLXMAW herbicidal rating (GLXMAW Soybean, Williams [21]; rate 0.125 kg/ha): 0.0 | Preemergence herbicidal rating, GLXMAW (GLXMAW Soybean, Williams [21]; rate 0.016 kg/ha): 0.0 | Preemergence herbicidal rating, GLXMAW (GLXMAW Soybean, Williams [21]; rate 0.032 kg/ha): 0.0 | TRZAWR herbicidal rating ([22]; rate 0.062 kg/ha): 1.0 | TRZAWR herbicidal rating ([22]; rate 0.125 kg/ha): 1.0 | Preemergence herbicidal rating, TRZAWR ([22]; rate 0.016 kg/ha): 0.0 | Preemergence herbicidal rating, TRZAWR ([22]; rate 0.032 kg/ha): 0.0 | ORYSAT herbicidal rating (ORYSAT Rice, Tebonnet [23]; rate 0.062 kg/ha): 5.0 | ORYSAT herbicidal rating (ORYSAT Rice, Tebonnet [23]; rate 0.125 kg/ha): 5.0 | Preemergence herbicidal rating, ORYSAT (ORYSAT Rice, Tebonnet [23]; rate 0.016 kg/ha): 0.0 | Preemergence herbicidal rating, ORYSAT (ORYSAT Rice, Tebonnet [23]; rate 0.032 kg/ha): 0.0 | ZEAMX herbicidal rating (ZEAMX Corn, Field [24]; rate 0.062 kg/ha): 1.0 | ZEAMX herbicidal rating (ZEAMX Corn, Field [24]; rate 0.125 kg/ha): 1.0 | Preemergence herbicidal rating, ZEAMX (ZEAMX Corn, Field [24]; rate 0.016 kg/ha): 0.0 | Preemergence herbicidal rating, ZEAMX (ZEAMX Corn, Field [24]; rate 0.032 kg/ha): 0.0
